# From US8697419B2, “Compositions and methods for culturing spirochetes” (Advanced Laboratory Services, Inc., priority 2011, dated 2014)
# What was measured:
# Assay type in all cases: cell-based
# Borrelia burgdorferi [1] = assay: Effect of DTT concentration on spirochete growth in BSK-H medium, dark-field microscopy
# Experimental: (§1) The cells were cultured for 6 days with different concentration of rabbit serum, DTT and antibiotics, as depicted, and cellular growth was evaluated by direct cell counting of motile spirochetes using dark field microscopy. Each set of data represents three independent experiments (mean±SD). Statistical significance was determined using two-sample paired t-test. The data *p-values<0.05 indicates statistical significance as related to control.
# The effect of the addition of a reducing agent, such as DTT, to the culture media was also evaluated. To determine the effect of DTT concentration on spirochete growth, Borrelia burgdorferi were cultured in BSK-H medium with 6%, 12%, and 20% rabbit serum and either 0.145 μg/ml DTT or 100 μg/ml DTT. The spirochetes were incubated in a CO2 incubator at 34° C. with 5% CO2 and 100% humidity for 6 days, at which time spirochete growth was evaluated by dark-field microscopy. […] See, FIG. 2B. […] See, FIG. 2B, p=0.0002.
# Borrelia burgdorferi [2] = assay: Effect of antibiotic concentration on spirochete growth in BSK-H medium, dark-field microscopy
# Experimental: as §1
# To determine the effect of antibiotic concentration on spirochete growth, Borrelia burgdorferi were cultured in BSK-H medium containing 12% rabbit serum, 100 μg/ml DTT and one of the following antibiotics: 0.5 μg/ml rifampicin, 50 μg/ml rifampicin, a 5 μg/ml rifampicin disc (resulting in final concentration of 0.4 μg/ml), 50 μg/ml phosphomycin, 100 μg/ml phosphomycin, or the combination of 50 μg/ml rifampicin and 50 μg/ml phosphomycin. The spirochetes were incubated in a CO2 incubator at 34° C. with 5% CO2 and 100% humidity for 6 days, at which time spirochete growth was evaluated by dark-field microscopy. […] See, FIG. 2C.
# Borrelia burgdorferi [3] = assay: Effect of magnesium concentration on spirochete growth in BSK-H medium; settings: 7.5×10^−2 M vs 7.5×10^−3 M MgCl2, 6% rabbit serum, 6 days, data not shown
# Experimental: To determine the effect of magnesium concentration on spirochete growth, Borrelia burgdorferi were cultured in BSK-H medium with 6% rabbit serum and either 7.5×10^−2 M MgCl2, or 7.5×10^−3 M MgCl2. The spirochetes were incubated in a CO2 incubator at 32° C. with 5% CO2 and 100% humidity for 6 days, at which time spirochete growth was evaluated by dark-field microscopy.
smiles,measurement,setting,value
"O[C@H](CS)[C@H](O)CS (racemic) [DTT, dithiothreitol]","spirochete yield, 100 μg/ml DTT relative to 0.145 μg/ml DTT","Borrelia burgdorferi [1]; BSK-H with 12% rabbit serum, p=0.0002",twice as many spirochetes
same,spirochete yields,"Borrelia burgdorferi [1]; DTT (0.145 or 100 μg/ml) included in BSK-H culture medium, 6 days",increased spirochete yields
C[C@@H]1O[C@@H]1P(=O)(O)O [phosphomycin],spirochete yield,"Borrelia burgdorferi [2]; 50 or 100 μg/ml phosphomycin, BSK-H, 12% rabbit serum, 100 μg/ml DTT, 6 days, 34° C.",significantly decreased spirochete yield
same,spirochete yields,"Borrelia burgdorferi [2]; lower concentrations of phosphomycin (e.g., 10 and 50 μg/ml), data not shown",significantly decreased spirochete yields
[Cl-].[Cl-].[Mg+2] [MgCl2],spirochete growth,Borrelia burgdorferi [3],No significant differences in spirochete growth
